According to US20250332173A1, “COMPOUNDS AND METHODS FOR MODULATING NUCLEIC ACID SPLICING” (REMIX THERAPEUTICS INC., priority 2021, published 2025):
Read-outs that look alike come from different tables or passages of the source.

Legend:
[1] = test system: K562 (human chronic myelogenous leukemia) cells; test: Cell Titer Glo 2.0 cell viability assay; type: cell-based; conditions: K562 cells, 72 hours, Cell Titer Glo 2.0, read-out: K562 GI50
SMN2 mRNA = test: RT-qPCR splicing assay, SMN2 canonical junction (CJ) mRNA; type: cell-based, human; conditions: Homo sapiens; canonical junction qPCR panel, Table 5; read-out: SMN2 (decrease in CJ mRNA levels, IC50)
Summary of the method: (§1)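 A673 cells (DMEM/10% FBS) or K562 cells (IMDM/10% FBS) were treated 24 h at 37° C. with 11-point 3-fold dilutions (top 10 uM, ≤0.25% DMSO). Canonical-junction mRNA was quantified in lysates by RT-qPCR, normalized to GAPDH, GUSB or PPIA.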

Target C = test: RT-qPCR splicing assay panel, Target C canonical junction (CJ) mRNA; type: cell-based, human; conditions: Homo sapiens; canonical junction qPCR panel, Table 5; read-out: Target C (decrease in CJ mRNA levels, IC50)
Summary of the method: as §1

MYB = test: HiBiT protein abundance assay, MYB HiBiT K562 cell line; type: cell-based, human; conditions: 24 hours, top dose 10 μM
Summary of the method: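 Tagged-protein abundance measured by split-NanoBiT luminescence after lysis, following 24 h compound exposure (37° C; 10 μM top, 3-fold, 10 points; DMSO ≤0.25%) of HiBiT knock-in K562 cells. Percent response vs DMSO and unmodified-cell controls; 4-parameter logistic interpolation at 50% gave IC50.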

[2] = HiBiT lytic detection, modified K562 cells, read-out: Effect on protein abundance, MYB (IC50)

Row | SMILES | GI50 ([1]; Homo sapiens, K562, 72 h) [µM] | IC50 (SMN2 mRNA) [µM] | IC50 (Target C) [µM] | IC50 (MYB; [2]) [µM] | GI50 [1] [µM] | IC50 (MYB; HiBiT K562 cell line, read-out: Effect on protein abundance, MYB (IC50 category)) [µM]
1 | Cc1c(O)c(-c2ncc3c(=O)n([C@@H]4CC[C@@H](N)C4)ccc3n2)cc2cn(C)nc12 [Compound 1476, 6-[(1R,3R)-3-aminocyclopentyl]-2-(6-hydroxy-2,7-dimethyl-indazol-5-yl)pyrido[4,3-d]pyrimidin-5-one] | 0.1 to 1 | < 0.1 | 1 to 10 | 0.1 to 1 |  | 
2 | Cc1c(O)c(-c2ncc3c(=O)n([C@@H]4CC[C@H](N)C4)ccc3n2)cc2cn(C)nc12 [Compound 1477] |  | < 0.1 | 0.1 to 1 | 0.1 to 1 | < 0.1 | 
3 | CNC12CCC(n3ccc4nc(-c5cc6cn(C)nc6c(C)c5O)ncc4c3=O)(CC1)C2 [Compound 1479] | < 0.1 | < 0.1 | 1 to 10 | < 0.1 |  | 
4 | COc1cc(-c2ccc3c(=O)n([C@H]4CCN[C@@H](C)C4)ccc3n2)nn2cc(C)nc12 [Compound 1519, 2-(8-methoxy-2-methyl-imidazo[1,2-b]pyridazin-6-yl)-6-[(2S,4S)-2-methyl-4-piperidyl]-1,6-naphthyridin-5-one] | 0.1 to 1 | < 0.1 | 0.1 to 1 | < 0.1 |  | 
5 | Cc1cn2nc(-c3ccc4c(=O)n([C@@H]5CCN(C)[C@H](C)C5)ncc4n3)cc(C)c2n1 [Compound 1527] | 0.1 to 1 | < 0.1 | 0.1 to 1 | 0.1 to 1 |  | 
6 | Cc1cn2nc(-c3ccc4c(=O)n([C@H]5CCN(C)[C@@H](C)C5)ncc4n3)cc(C)c2n1 [Compound 1528, 2-(2,8-dimethylimidazo[1,2-b]pyridazin-6-yl)-6-(1,2-dimethyl-4-piperidyl)pyrido[2,3-d]pyridazin-5-one] | 0.1 to 1 | 0.1 to 1 | 0.1 to 1 | 0.1 to 1 |  | 
7 | CCN1CC[C@@H](n2ncc3nc(-c4cc(C)c5nc(C)cn5n4)ccc3c2=O)CC12CC2 [Compound 1530] | 0.1 to 1 | < 0.1 | < 0.1 | < 0.1 |  | 
8 | CCN1CC[C@H](n2ncc3nc(-c4cc(C)c5nc(C)cn5n4)ccc3c2=O)CC12CC2 [Compound 1531] | 0.1 to 1 | < 0.1 | 0.1 to 1 | 0.1 to 1 |  | 
9 | Cc1cn2nc(-c3ccc4c(=O)n([C@H]5CCN(C)C6(CC6)C5)ncc4n3)cc(C)c2n1 [Compound 1533] | 0.1 to 1 | < 0.1 | 0.1 to 1 | 0.1 to 1 |  | 
10 | Cc1cn2nc(-c3ccc4c(=O)n([C@@H]5CCN(C)C6(CC6)C5)ncc4n3)cc(C)c2n1 [Compound 1534] | 0.1 to 1 | < 0.1 | < 0.1 | 0.1 to 1 |  | 
11 | Cc1cn2nc(-c3ccc4c(=O)n(C5CCN(CCO)C6(CC6)C5)ncc4n3)cc(C)c2n1 (stereo not drawn) [Compound 1541, 2-(2,8-dimethylimidazo[1,2-b]pyridazin-6-yl)-6-[4-(2-hydroxyethyl)-4-azaspiro[2.5]octan-7-yl]pyrido-[2,3-d]pyridazin-5-one] | 1 to 10 | < 0.1 | 0.1 to 1 |  |  | 0.1 to 1
12 | Cc1cn2nc(-c3ccc4c(=O)n(C5CCN(CCF)C6(CC6)C5)ncc4n3)cc(C)c2n1 (stereo not drawn) [Compound 1542, 2-(2,8-dimethylimidazo[1,2-b]pyridazin-6-yl)-6-[4-(2-fluoroethyl)-4-azaspiro[2.5]octan-7-1]pyrido[2,3-d]pyridazin-5-one] | 1 to 10 | 0.1 to 1 | 1 to 10 | 1 to 10 |  | 
13 | Cc1cn2nc(-c3ccc4c(=O)n(C5CCN(CC6CC6)C6(CC6)C5)ncc4n3)cc(C)c2n1 (stereo not drawn) [Compound 1543, 6-[4-(cyclopropylmethyl)-4-azaspiro[2.5]octan-7-yl]-2-(2,8-dimethylimidazo[1,2-b]pyridazin-6-yl)pyrido[2,3-d]pyridazin-5-one] | 0.1 to 1 | < 0.1 | 0.1 to 1 | 0.1 to 1 |  | 
14 | Cc1cn2nc(-c3ccc4c(=O)n([C@@H]5CCNC6(CCC6)C5)ncc4n3)cc(C)c2n1 [Compound 1545, 6-[(8R)-5-azaspiro[3.5]nonan-8-yl]-2-(2,8-dimethylimidazo[1,2-b]pyridazin-6-yl)pyrido[2,3-d]pyridazin-5-one] | 0.1 to 1 | < 0.1 | 0.1 to 1 | 0.1 to 1 |  | 
15 | Cc1cn2nc(-c3ccc4c(=O)n(C5CCNC6(CCC6)C5)ncc4n3)cc(C)c2n1 (stereo not drawn) [Compound 1553] | 1 to 10 | 0.1 to 1 | 1 to 10 | 1 to 10 |  | 
16 | Cn1cc2ccc(-n3cnc4ccc(NC5CCNCC5)cc4c3=O)cc2n1 [Compound 2164] | > 10 | > 10 | 1 to 10 | > 10 |  | 
17 | Cc1cc(-c2ccc3ncn(C4CCNCC4)c(=O)c3c2)cc2cn(C)nc12 [Compound 2169] | > 10 | > 10 | > 10 | > 10 |  | 
18 | Cc1cc(-c2ccc3ncn(C4CCN(C)CC4)c(=O)c3c2)cc2cn(C)nc12 [Compound 2170] | > 10 | > 10 | > 10 | > 10 |  | 
19 | CN1CCC(Nc2ccc3ncn(-c4ccc5nn(C)cc5c4)c(=O)c3c2)CC1 [Compound 2171] | > 10 | > 10 | > 10 | > 10 |  | 
20 | Cc1cn2cc(-n3cnc4ccc(N5CCNCC5)cc4c3=O)cc(F)c2n1 [Compound 2195] | > 10 | > 10 | > 10 | > 10 |  | 
21 | Cn1cc2cc(-n3cnc4ccc(N5CCNCC5)cc4c3=O)cc(F)c2n1 [Compound 2196] | > 10 | > 10 | > 10 | > 10 |  | 
22 | Cc1cn2cc(-n3cnc4ccc(N5CCN(C)CC5)cc4c3=O)cc(F)c2n1 [Compound 2197] | 1 to 10 | 1 to 10 | 1 to 10 | 1 to 10 |  | 
23 | CN(c1ccc2ncn(-c3cc(F)c4nn(C)cc4c3)c(=O)c2c1)C1CCNCC1 [Compound 2198] | > 10 | > 10 | > 10 | > 10 |  | 
24 | CN1CCC(N(C)c2ccc3ncn(-c4cc(F)c5nn(C)cc5c4)c(=O)c3c2)CC1 [Compound 2199] | > 10 | > 10 | > 10 | > 10 |  | 
25 | Cc1cn2cc(-n3cnc4ccc(N(C)C5CCNCC5)cc4c3=O)cc(F)c2n1 [Compound 2200] | > 10 | > 10 | > 10 | > 10 |  | 
26 | Cc1cn2nc(-n3cnc4ccc(N5CCNCC5)cc4c3=O)cc(C)c2n1 [Compound 2201] | > 10 | > 10 | > 10 | > 10 |  | 
27 | Cc1cn2nc(-n3cnc4ccc(N5CCN(C)CC5)cc4c3=O)cc(C)c2n1 [Compound 2202] | 1 to 10 | 1 to 10 | 1 to 10 | 1 to 10 |  | 
28 | Cc1cc(-c2ccc3c(=O)[nH]c(N4CCNCC4)nc3c2)cc2cn(C)nc12 [Compound 2211] | > 10 | > 10 | > 10 | > 10 |  | 
29 | Cc1cc(-c2ccc3c(=O)[nH]c(N4CCN(C)CC4)nc3c2)cc2cn(C)nc12 [Compound 2212] | 1 to 10 | 1 to 10 | 1 to 10 | > 10 |  | 
30 | Cc1cc(-c2nc3cc(N4CCNCC4)ccc3c(=O)[nH]2)cc2cn(C)nc12 [Compound 2213] | 1 to 10 | > 10 | > 10 | > 10 |  | 
